Laboratory results published in ChEMBL document CHEMBL1201862, “PubChem BioAssay data set” (2004).
Activity calls are given as the source filed them.

These compounds were tested against T1, Corticotropin-releasing factor receptor 2/Corticotropin-releasing factor-binding protein (Homo sapiens, UniProt P24387+Q13324) (assay: Dose Response confirmation of uHTS hits for small molecule antagonists of the CRF-binding protein and CRF-R2 receptor complex.). Settings: read-out: IC50_Mean.
T1 sequence (Q13324 whole entry): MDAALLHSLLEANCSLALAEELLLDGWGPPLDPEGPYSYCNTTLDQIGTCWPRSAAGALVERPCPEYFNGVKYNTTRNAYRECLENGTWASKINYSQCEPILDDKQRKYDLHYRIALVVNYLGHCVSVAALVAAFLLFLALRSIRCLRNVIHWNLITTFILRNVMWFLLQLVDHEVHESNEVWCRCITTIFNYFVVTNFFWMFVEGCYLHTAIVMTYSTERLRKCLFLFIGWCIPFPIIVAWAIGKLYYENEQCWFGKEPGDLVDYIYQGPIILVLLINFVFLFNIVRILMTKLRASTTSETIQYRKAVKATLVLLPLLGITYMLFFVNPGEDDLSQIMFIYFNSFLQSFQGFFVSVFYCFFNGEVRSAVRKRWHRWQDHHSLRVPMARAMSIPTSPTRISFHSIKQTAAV
T1 sequence (P24387 whole entry): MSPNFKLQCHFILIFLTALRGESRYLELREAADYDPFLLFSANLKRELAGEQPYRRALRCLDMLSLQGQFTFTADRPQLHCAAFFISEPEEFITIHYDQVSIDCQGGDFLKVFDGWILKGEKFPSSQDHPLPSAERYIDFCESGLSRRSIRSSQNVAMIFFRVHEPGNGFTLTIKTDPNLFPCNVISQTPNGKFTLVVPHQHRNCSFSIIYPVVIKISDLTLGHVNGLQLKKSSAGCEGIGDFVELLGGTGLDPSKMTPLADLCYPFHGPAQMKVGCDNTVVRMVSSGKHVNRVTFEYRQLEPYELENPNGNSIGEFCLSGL
Type: functional
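Throughout, for AC50: cell death triggered by IL-1 beta plus TNF-alpha plus IFN-gamma mixture; protective hits raise ATP signal compared with cytokine alone wells.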

Structure (SMILES)	IC50
CCOC(=O)c1c(C)[nH]c(C)c1C(=O)COC(=O)/C=C/c1ccc(Cl)cc1	> 47.1 µM (inactive)
CCCN1CCN(C2CCCCC2NS(=O)(=O)c2ccc(Cl)cc2)CC1 (stereo not given)	> 47.1 µM (inactive)
O=[N+]([O-])c1ccccc1C=NNC(=S)NN=Cc1ccccc1[N+](=O)[O-]	> 47.1 µM (inactive)
CSCSC1=C(C#N)C(c2ccccc2Cl)C(C(C)=O)=C(C)N1 (stereo not given)	> 47.1 µM (inactive)
CC1C(=O)C(C)C(c2cccs2)NC1c1cccs1 (stereo not given)	> 47.1 µM (inactive)
FC(F)(F)c1nnc2sc(-c3cccs3)nn12	> 47.1 µM (inactive)
COC(=O)C(OC(=O)c1ccccc1)C(C)Br (stereo not given)	> 47.1 µM (inactive)
CCC/C(=N/CC(=O)O)C1=C(O)C(C(=O)OC)C(C)(C)CC1=O (stereo not given)	> 47.1 µM (inactive)
COc1ccc(C2CC(c3cccs3)=NN2C(=O)c2ccccc2)cc1OC (stereo not given)	> 47.1 µM (inactive)
CN(C)c1ncnc2c1N=C1CC(C)(C)CC(NCCCC(=O)O)=C1S2	> 47.1 µM (inactive)
Cc1ccc(S(=O)(=O)N2CCC(c3nc4c(nnn4Cc4ccccc4)c(=O)[nH]3)CC2)cc1	> 47.1 µM (inactive)
CCN(CC(=O)Nc1ccc(OC)cc1)C(=O)c1cc(S(=O)(=O)N2CCOCC2)ccc1N1CCCC1	> 47.1 µM (inactive)
COc1cccc(C2C(C(=O)c3ccc(C)o3)=C(O)C(=O)N2CCN2CCOCC2)c1OC (stereo not given)	> 47.1 µM (inactive)
Cc1nn(-c2ccc([N+](=O)[O-])cc2)c(N)c1-c1ccccc1	> 47.1 µM (inactive)
COc1ccc(/C=C2\CCC(C3CCCC3)C2=O)cc1OC (stereo not given)	> 47.1 µM (inactive)
CC1CCN(C(=O)c2nc[nH]c2C(=O)N[C@@H](C)C(=O)OC(C)(C)C)CC1	> 47.1 µM (inactive)
CCCCOC(=O)c1ccc(NC(c2ccc(C)cc2)P(=O)(OC)OC)cc1 (stereo not given)	> 47.1 µM (inactive)
COC(=O)c1ccc(/C(O)=C(\C#N)c2nc3ccccc3s2)cc1	3.93 µM (active)
CC(C)CCOP(=O)(c1ccc(N(C)C)cc1)C(Nc1ccccc1)c1ccc(N(C)C)cc1 (stereo not given)	> 47.1 µM (inactive)

Each compound was assayed on INS1 (assay: beta cell apoptosis inhibitors, cytokine rescue, dose response, luminescence, retest (AID 449756)). Settings: Rattus norvegicus.
Type: functional, cell-based

Structure (SMILES)	AC50
CCCCOC(=O)c1ccc(NC(c2ccc(C)cc2)P(=O)(OC)OC)cc1 (stereo not given)	30.8 µM (active)

The compounds below were run against T1, Corticotropin-releasing factor receptor 2/Corticotropin-releasing factor-binding protein (assay: activators of CRF receptor 2 with binding protein – uHTS hits, confirmation (AID 602473)). Settings: read-out: EC50_Mean.
Type: functional

Structure (SMILES)	EC50
CCOC(=O)c1c(C)[nH]c(C)c1C(=O)COC(=O)/C=C/c1ccc(Cl)cc1	> 53 µM (inactive)
CCCN1CCN(C2CCCCC2NS(=O)(=O)c2ccc(Cl)cc2)CC1 (stereo not given)	> 53 µM (inactive)
O=[N+]([O-])c1ccccc1C=NNC(=S)NN=Cc1ccccc1[N+](=O)[O-]	> 53 µM (inactive)
CSCSC1=C(C#N)C(c2ccccc2Cl)C(C(C)=O)=C(C)N1 (stereo not given)	> 53 µM (inactive)
CC1C(=O)C(C)C(c2cccs2)NC1c1cccs1 (stereo not given)	> 53 µM (inactive)
FC(F)(F)c1nnc2sc(-c3cccs3)nn12	> 53 µM (inactive)
COC(=O)C(OC(=O)c1ccccc1)C(C)Br (stereo not given)	> 53 µM (inactive)
CCC/C(=N/CC(=O)O)C1=C(O)C(C(=O)OC)C(C)(C)CC1=O (stereo not given)	> 53 µM (inactive)
COc1ccc(C2CC(c3cccs3)=NN2C(=O)c2ccccc2)cc1OC (stereo not given)	> 53 µM (inactive)
CN(C)c1ncnc2c1N=C1CC(C)(C)CC(NCCCC(=O)O)=C1S2	> 53 µM (inactive)
Cc1ccc(S(=O)(=O)N2CCC(c3nc4c(nnn4Cc4ccccc4)c(=O)[nH]3)CC2)cc1	> 53 µM (inactive)
CCN(CC(=O)Nc1ccc(OC)cc1)C(=O)c1cc(S(=O)(=O)N2CCOCC2)ccc1N1CCCC1	> 53 µM (inactive)
COc1cccc(C2C(C(=O)c3ccc(C)o3)=C(O)C(=O)N2CCN2CCOCC2)c1OC (stereo not given)	> 53 µM (inactive)
Cc1nn(-c2ccc([N+](=O)[O-])cc2)c(N)c1-c1ccccc1	> 53 µM (inactive)
COc1ccc(/C=C2\CCC(C3CCCC3)C2=O)cc1OC (stereo not given)	> 53 µM (inactive)
CC1CCN(C(=O)c2nc[nH]c2C(=O)N[C@@H](C)C(=O)OC(C)(C)C)CC1	> 53 µM (inactive)
CCCCOC(=O)c1ccc(NC(c2ccc(C)cc2)P(=O)(OC)OC)cc1 (stereo not given)	> 53 µM (inactive)
COC(=O)c1ccc(/C(O)=C(\C#N)c2nc3ccccc3s2)cc1	> 53 µM (inactive)
CC(C)CCOP(=O)(c1ccc(N(C)C)cc1)C(Nc1ccccc1)c1ccc(N(C)C)cc1 (stereo not given)	> 53 µM (inactive)

These compounds were tested against T2, Rac GTPase-activating protein 1 (Homo sapiens, UniProt Q9H0H5) (assay: MgcRacGAP GTPase-activating activity inhibitors, confirmation, biochemical, ADP Hunter fluorescence, primary and confirmatory (AID 624330)). Settings: not given.
T2 sequence (Q9H0H5 whole entry): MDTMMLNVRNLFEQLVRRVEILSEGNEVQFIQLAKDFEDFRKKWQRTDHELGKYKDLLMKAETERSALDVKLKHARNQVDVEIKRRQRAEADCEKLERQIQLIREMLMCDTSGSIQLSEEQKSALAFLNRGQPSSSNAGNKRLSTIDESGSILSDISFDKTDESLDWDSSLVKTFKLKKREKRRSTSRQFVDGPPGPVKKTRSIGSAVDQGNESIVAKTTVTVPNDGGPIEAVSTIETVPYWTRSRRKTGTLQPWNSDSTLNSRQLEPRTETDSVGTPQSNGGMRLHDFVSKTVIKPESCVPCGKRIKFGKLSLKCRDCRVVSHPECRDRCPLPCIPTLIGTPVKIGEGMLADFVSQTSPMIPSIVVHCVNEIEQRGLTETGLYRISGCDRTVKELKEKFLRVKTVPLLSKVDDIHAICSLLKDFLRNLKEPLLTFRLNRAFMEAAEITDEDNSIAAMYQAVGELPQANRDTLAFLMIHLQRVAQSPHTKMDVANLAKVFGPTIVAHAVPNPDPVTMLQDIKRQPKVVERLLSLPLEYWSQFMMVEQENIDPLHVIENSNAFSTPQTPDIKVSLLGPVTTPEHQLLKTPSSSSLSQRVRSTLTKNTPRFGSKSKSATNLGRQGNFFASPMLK
Type: functional

Structure (SMILES)	IC50
CN(C)c1ncnc2c1N=C1CC(C)(C)CC(NCCCC(=O)O)=C1S2	78.8 µM (active)
